Assays:
M-HeLa = test: cells; type: cell-based, human; details: for IC50: Homo sapiens, M-HeLa, MTT, cancer cell line, three independent experiments; for SI, M-HeLa: selectivity index vs Chang liver normal cells, ns = no selectivity
MCF-7 = test: cells; type: cell-based, human; details: for IC50: Homo sapiens, MCF7, MTT, cancer cell line, three independent experiments; for SI, MCF-7: selectivity index vs Chang liver normal cells, ns = no selectivity
HuTu 80 cells [1] = test: Cell cycle analysis by flow cytometry; type: cell-based, human; details: 24 h; for cells in G1/G0 phase: control 77%
Description: Taking into account the high potency and selectivity of the compound 2a, some additional experiments were carried out to study in more details its anti-cancer action. The mechanism of action of cytotoxic agents is often associated with cell cycle arrest, which leads to a slowing down of cell proliferation. So, we have performed a cell cycle analysis for the HuTu 80 cells using flow cytometry. […] Meanwhile, the proportion of cells in S phase decreased almost by half (8.2% vs. 4.7%).

HuTu 80 cells [2] = test: Apoptosis induction, annexin V-Alexa Fluor 647 / propidium iodide flow cytometry; type: cell-based, human; details: 24-h incubation, most active at IC50/2 (12.5 µM), early apoptosis stage
Description: Cell Culture. HuTu 80 cells at 1 × 10^6 cells/well in a final volume of 2 mL were seeded into six-well plates. After 24 h of incubation, various concentrations of compound 2a were added to wells.
Cell Apoptosis Analysis. The cells were harvested at 2000 rpm for 5 min and then washed twice with ice-cold PBS, followed by resuspension in binding buffer. Next, the samples were incubated with 5 μL of annexin V- Alexa Fluor 647 (Sigma-Aldrich, St. Louis, MO, USA) and 5 μL of propidium iodide for 15 min at room temperature in the dark. Finally, the cells were analyzed by flow cytometry (Guava easy Cyte, MERCK, Rahway, NJ, USA) within 1 h. The experiments were repeated three times.

HuTu 80 cells [3] = test: Mitochondrial membrane potential, JC-10 flow cytometry; type: cell-based, human; details: IC50/2 and IC50, more pronounced at IC50/2
Description: The possibility of apoptosis through the mitochondrial pathway was assessed by flow cytometry using the JC-10 fluorescent dye (in the Mitochondria Membrane Potential Kit). In normal cells with a high membrane potential, JC-10 accumulates in the mitochondrial matrix, where it forms aggregates with a red fluorescence. However, in apoptotic cells, a decrease in the membrane potential occurs. JC-10 diffuses from mitochondria and turns into a monomeric form, emitting a green fluorescence, which is recorded by a flow cytometer (Figure 4). […] As in the experiment with V-Alexa Fluor 647, the cytotoxic effect of compound 2a was more pronounced at IC50/2 concentration.
Cells were harvested at 2000 rpm for 5 min and then washed twice with ice-cold PBS, followed by resuspension in JC-10 (10 µg/mL) and incubation at 37 °C for 10 min. After the cells were rinsed three times and suspended in PBS, the JC-10 fluorescence was observed by flow cytometry (Guava easy Cyte, MERCK, Rahway, NJ, USA).

HuTu 80 cells [4] = test: Intracellular ROS, CellROX Deep Red flow cytometry; type: cell-based, human; details: for CellROX Deep Red fluorescence intensity (ROS production): control 700
From the text: An increase in the production of reactive oxygen species (ROS) by compounds also characterizes the development of apoptosis along the mitochondrial pathway. Mitochondria are a potential source and target of ROS. ROS leads to dysfunction of the mitochondria and, consequently, to irreversible cell damage. In this regard, the effect of the lead compound 2a in HuTu 80 cells on ROS production was investigated using a flow cytometry assay and the CellROX® Deep Red flow cytometry kit. The data presented in Figure 6 show a significant increase in CellROX® Deep Red fluorescence intensity dominated by IC50/2.
HuTu 80 cells were incubated with compound 2a at concentrations of IC50 for 24 h. ROS generation was investigated using flow cytometry assay and CellROX® Deep Red flow cytometry kit. For this HuTu 80 cells were harvested at 2000 rpm for 5 min and then washed twice with ice-cold PBS, followed by resuspension in 0.1 mL of medium without FBS, to which was added 0.2 μL of CellROX® Deep Red and incubated at 37 °C for 30 min After being washed three times, the cells were suspended in PBS, and the production of ROS in the cells was immediately monitored using a flow cytometer Guava easy Cyte, MERCK, Rahway, NJ, USA).

HuTu 80 [5] = details: for SI, HuTu 80: selectivity index vs Chang liver normal cells, ns = no selectivity
Chang Liver [6] = details: relative to 5-fluorouracil
HuTu 80 [7] = test: cells; details: Homo sapiens, HuTu80, read-out: IC50, HuTu 80
Chang Liver [8] = test: cells; details: Homo sapiens, read-out: IC50, Chang Liver
Solubility in water = type: physicochemical; details: in words; reason for exclusion from cytotoxicity studies

Compound: CN1c2c(c(=O)oc3ccccc23)CC12C(=O)c1ccccc1C2=O
- melting point: > 300 °C

Compound: Cc1cc(C)c2c(c1C)OP(=O)(O)[C@@H]1CN(C)C3(C(=O)c4ccccc4C3=O)[C@H]21 [2a, (3aS,9bS)-4-hydroxy-2,6,7,9-tetramethyl-2,3,3a,9b-tetrahydrospiro[benzo [5,6][1,2]oxaphosphinino [3,4-c]pyrrole-1,2’-indene]-1’,3’-dione 4-oxide]
- IC50 (M-HeLa): 52.6 ± 4.1 µM
- SI, M-HeLa (M-HeLa): >15
- IC50 (MCF-7): 82.3 ± 7.5 µM
- effect on cell cycle (in words) (HuTu 80 cells [1]; 12.5 and 25 µM): induces G0/G1 phase arrest
- cells in S phase (HuTu 80 cells [1]; IC50 (25 µM), control 8.2%): 4.7%
- cells in G1/G0 phase (HuTu 80 cells [1]; IC50 (25 µM)): 81.0%
- cells in G1/G0 phase (HuTu 80 cells [1]; IC50/2 (12.5 µM)): 79.0%
- induction of apoptosis (in words) (HuTu 80 cells [2]): begins to induce apoptosis
- effect on mitochondrial membrane potential (in words) (HuTu 80 cells [3]): significant decrease
- CellROX Deep Red fluorescence intensity (ROS production) (HuTu 80 cells [4]; IC50 (25 µM)): 1500
- CellROX Deep Red fluorescence intensity (ROS production) (HuTu 80 cells [4]; IC50/2 (12.5 µM)): 2000
- effect on ROS production (in words) (HuTu 80 cells [4]; IC50/2 and IC50, dominated by IC50/2): increase in ROS production
- melting point: > 300 °C
- cytotoxicity against HuTu 80 cell line, fold higher than reference 5-fluorouracil (HuTu 80 [5]; relative to 5-fluorouracil): ~2.6 fold
- SI, HuTu 80 (HuTu 80 [5]): >32
- cytotoxicity against Chang liver normal cell line, fold lower than reference compound (Chang Liver [6]): more than 10 fold
- IC50 (HuTu 80 [7]): 25.1 ± 1.9 µM
- IC50 (Chang Liver [8]): > 800 µM

Compound: COc1ccc2c(c1)OP(=O)(O)[C@@H]1CN(C)C3(C(=O)c4ccccc4C3=O)[C@H]21 [2b, (3aS,9bS)-4-hydroxy-7-methoxy-2-methyl-2,3,3a,9b-tetrahydrospiro[benzo [5,6][1,2]oxaphosphinino [3,4-c]pyrrole-1,2’-indene]-1’,3’-dione 4-oxide]
- IC50 (M-HeLa): 59.7 ± 4.6 µM
- SI, M-HeLa (M-HeLa): 1
- IC50 (MCF-7): > 100 µM
- SI, MCF-7 (MCF-7): ns
- SI, HuTu 80 (HuTu 80 [5]): 1.2
- IC50 (HuTu 80 [7]): 53.4 ± 4.2 µM
- IC50 (Chang Liver [8]): 62 ± 5.5 µM

Compound: CN1C[C@@H]2[C@@H](c3c(O)c(Cl)cc(Cl)c3OP2(=O)O)C12C(=O)c1ccccc1C2=O [2c, (3aS,9bS)-6,8-dichloro-4,9-dihydroxy-2-methyl-2,3,3a,9b-tetrahydrospiro[benzo [5,6][1,2]oxaphosphinino [3,4-c]pyrrole-1,2’-indene]-1’,3’-dione 4-oxide]
- IC50 (M-HeLa): > 100 µM
- SI, M-HeLa (M-HeLa): ns
- IC50 (MCF-7): 77.6 ± 6.2 µM
- SI, MCF-7 (MCF-7): ns
- melting point: > 300 °C
- SI, HuTu 80 (HuTu 80 [5]): ns
- IC50 (HuTu 80 [7]): 100 ± 8.4 µM
- IC50 (Chang Liver [8]): > 100 µM

Compound: CN1C[C@@H]2[C@@H](c3ccc4ccccc4c3OP2(=O)O)C12C(=O)c1ccccc1C2=O [2d, (3a’S,11a’S)-11’-hydroxy-2’-methyl-1’,2’,3a’,11a’-tetrahydrospiro[indene-2,3’-naphtho [2’,1’:5,6][1,2]oxaphosphinino [3,4-c]pyrrole]-1,3-dione 11’-oxide]
- IC50 (M-HeLa): 60 ± 5.4 µM
- SI, M-HeLa (M-HeLa): ns
- IC50 (MCF-7): 92.2 ± 8.3 µM
- SI, MCF-7 (MCF-7): ns
- melting point: > 300 °C
- SI, HuTu 80 (HuTu 80 [5]): ns
- IC50 (HuTu 80 [7]): 82.6 ± 7.6 µM
- IC50 (Chang Liver [8]): 57 ± 4.3 µM

Compound: Cc1cc(C)c2c(c1C)OP(=O)(O)[C@@H]1[C@H]3CCCN3C3(C(=O)c4ccccc4C3=O)[C@H]21 [2e, (6aS,6bR,11aS)-6-hydroxy-1,3,4-trimethyl-6a,6b,7,8,9,11a-hexahydrospiro[benzo [5,6][1,2]oxaphosphinino [3,4-a]pyrrolizine-11,2’-indene]-1’,3’-dione 6-oxide]
- IC50 (M-HeLa): > 100 µM
- SI, M-HeLa (M-HeLa): ns
- IC50 (MCF-7): > 100 µM
- SI, MCF-7 (MCF-7): ns
- melting point: > 300 °C
- SI, HuTu 80 (HuTu 80 [5]): ns
- IC50 (HuTu 80 [7]): > 100 µM
- IC50 (Chang Liver [8]): > 100 µM

Compound: O=C1c2ccccc2C(=O)C12[C@@H]1c3ccc4ccccc4c3OP(=O)(O)[C@@H]1[C@H]1CCCN12 [2f, (8a’S,8b’R,13a’S)-8’-hydroxy-8a’,8b’,9’,10’,11’,13a’-hexahydrospiro[indene-2,13’-naphtho [2’,1’:5,6][1,2]oxaphosphinino [3,4-a]pyrrolizine]-1,3-dione 8’-oxide]
- solubility in water (Solubility in water): extremely low
- melting point: > 300 °C

Compound: O=C1c2ccccc2C(=O)C12[C@@H]1c3ccc4cc(Br)ccc4c3OP(=O)(O)[C@@H]1[C@H]1CCCN12 [2g, (8a’S,8b’R,13a’S)-4’-bromo-8’-hydroxy-8a’,8b’,9’,10’,11’,13a’-hexahydrospiro[indene-2,13’-naphtho [2’,1’:5,6][1,2]oxaphosphinino [3,4-a]pyrrolizine]-1,3-dione 8’-oxide]
- solubility in water (Solubility in water): extremely low
- melting point: > 300 °C

Compound: O=c1[nH]cc(F)c(=O)[nH]1 [5-fluorouracil, reference compound]
- IC50 (M-HeLa): 62 ± 4.7 µM
- SI, M-HeLa (M-HeLa): 1.4
- IC50 (MCF-7): 16.7 ± 1.3 µM
- SI, MCF-7 (MCF-7): 5
- SI, HuTu 80 (HuTu 80 [5]): 1.3
- IC50 (HuTu 80 [7]): 65.2 ± 5.6 µM
